Data: ChEMBL document CHEMBL5032490, “Neuroactive Type-A γ-Aminobutyric Acid Receptor Allosteric Modulator Steroids from the Hypobranchial Gland of Marine Mollusk, Conus geographus” (J Med Chem, 2021)
Calls of active or inactive are those of the source.

What was measured:
Neuron [1] = assay: Negative allosteric modulation of human GABA receptor expressed in mouse DRG neurons assessed as inhibition of 340 nM GABA-induced responses at 0.5 uM using c-LTMRS; type: tissue-based; conditions: filed as negative allosteric modulator
Neuron [2] = assay: Negative allosteric modulation of mouse GABA receptor in mouse DRG neurons assessed as inhibition of KCl-induced response at 10 uM using cold thermosensors; type: tissue-based; conditions: filed as negative allosteric modulator
[3] = biological target: GABA A receptor alpha-4/beta-3/gamma-2 (Homo sapiens, UniProt P18507+P28472+P48169); assay: Negative allosteric modulation activity at human GABAA alpha4beta3gamma2 stably expressed in HEK cells by patch clamp method; type: cell-based
Mus musculus [4] = assay: Antinociception activity in mouse model assessed as reduction in thermal hypersensitivity at 2 to 50 mg/kg, ip by hot plate test; type: functional, organism-based; conditions: dose 2-50 mg/kg
[5] = biological target: T1, GABA-A receptor; alpha-5/beta-3/gamma-2 (Homo sapiens, UniProt P18507+P28472+P31644); assay: Negative allosteric modulation activity at human GABAA alpha5beta3gamma2 stably expressed in HEK cells by patch clamp method; type: cell-based
T1 sequence (P18507 whole entry): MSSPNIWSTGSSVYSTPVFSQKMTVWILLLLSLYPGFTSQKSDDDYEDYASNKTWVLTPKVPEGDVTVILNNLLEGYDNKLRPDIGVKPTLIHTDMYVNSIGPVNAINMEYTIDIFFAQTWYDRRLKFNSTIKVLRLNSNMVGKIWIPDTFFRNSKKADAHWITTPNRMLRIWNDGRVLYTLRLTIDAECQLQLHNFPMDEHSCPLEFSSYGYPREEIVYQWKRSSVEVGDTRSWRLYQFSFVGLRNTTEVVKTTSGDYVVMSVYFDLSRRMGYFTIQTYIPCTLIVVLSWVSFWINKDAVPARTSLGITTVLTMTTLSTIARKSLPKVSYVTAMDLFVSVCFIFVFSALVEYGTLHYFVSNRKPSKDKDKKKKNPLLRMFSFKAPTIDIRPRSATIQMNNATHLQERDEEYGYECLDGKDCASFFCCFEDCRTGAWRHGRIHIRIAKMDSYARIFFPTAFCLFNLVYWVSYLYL
T1 sequence (P28472 whole entry): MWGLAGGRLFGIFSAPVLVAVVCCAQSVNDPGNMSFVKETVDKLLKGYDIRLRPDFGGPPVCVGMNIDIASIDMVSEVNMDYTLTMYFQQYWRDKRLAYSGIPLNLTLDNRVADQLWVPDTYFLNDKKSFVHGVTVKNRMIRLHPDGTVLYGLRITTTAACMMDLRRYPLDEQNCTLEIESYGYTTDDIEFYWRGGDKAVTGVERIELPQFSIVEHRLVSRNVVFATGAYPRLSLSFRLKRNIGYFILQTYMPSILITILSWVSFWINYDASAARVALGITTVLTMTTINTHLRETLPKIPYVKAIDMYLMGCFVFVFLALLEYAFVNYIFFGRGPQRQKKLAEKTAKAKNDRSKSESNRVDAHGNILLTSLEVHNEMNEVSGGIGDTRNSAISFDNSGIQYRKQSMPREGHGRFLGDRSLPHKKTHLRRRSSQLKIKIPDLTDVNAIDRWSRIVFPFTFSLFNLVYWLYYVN
T1 sequence (P31644 whole entry): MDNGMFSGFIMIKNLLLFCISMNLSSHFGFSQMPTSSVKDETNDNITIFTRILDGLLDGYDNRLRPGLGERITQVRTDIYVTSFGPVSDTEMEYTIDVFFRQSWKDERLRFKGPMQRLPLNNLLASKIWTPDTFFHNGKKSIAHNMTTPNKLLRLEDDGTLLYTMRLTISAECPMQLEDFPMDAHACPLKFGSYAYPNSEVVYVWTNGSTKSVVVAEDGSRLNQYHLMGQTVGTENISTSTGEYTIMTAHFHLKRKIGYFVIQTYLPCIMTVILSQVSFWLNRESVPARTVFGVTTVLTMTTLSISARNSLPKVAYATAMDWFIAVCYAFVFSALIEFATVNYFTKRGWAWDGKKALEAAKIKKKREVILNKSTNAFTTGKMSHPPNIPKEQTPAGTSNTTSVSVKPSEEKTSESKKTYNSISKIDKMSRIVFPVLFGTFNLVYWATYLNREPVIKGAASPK

Neuron [6] = assay: Negative allosteric modulation of mouse GABA receptor in mouse C-low-threshold mechanoreceptive DRG neurons assessed as inhibition of KCl-induced response at 40 uM; type: tissue-based; conditions: filed as negative allosteric modulator
[7] = Induction of ATP and Kcl-induced increase in cytosolic Ca2+ ion concentration mouse non-peptidergic nociceptive DRG neuron assessed as neuron population at 10 uM measured after 1 hr by Fura2AM dye based fluorescence microscopic analysis; type: functional
[8] = Induction of ATP and Kcl-induced increase in cytosolic Ca2+ ion concentration mouse […] assessed as neuron population at 10 uM measured after 1 hr by Fura2AM dye based fluorescence microscopic analysis; type: functional
[9] = Induction of ATP and Kcl-induced increase in cytosolic Ca2+ ion concentration mouse DRG other neuron subtype assessed as neuron population at 10 uM measured after 1 hr by Fura2AM dye based fluorescence microscopic analysis; type: functional
Mus musculus [10] = assay: Antinociceptive activity in mouse assessed as total number of responses at 2 to 50 mg/kg, ip by Von Frey test; type: functional, organism-based; conditions: dose 2-50 mg/kg
Mus musculus [11] = assay: Anxiolytic activity in restraint stress induced anxiety mouse model assessed as total number of responses at 2 to 50 mg/kg, ip administered measured after 5 mins by plus maze test; type: functional, organism-based; conditions: dose 2-50 mg/kg
Neuron [12] = assay: Negative allosteric modulation of human GABA receptor expressed in mouse DRG neurons assessed as inhibition of 340 nM GABA-induced responses at 0.5 uM using cold thermo-sensors; type: tissue-based; conditions: filed as negative allosteric modulator

GABA A receptor alpha-4/beta-3/gamma-2, sequence (P48169 whole entry, one chain of several): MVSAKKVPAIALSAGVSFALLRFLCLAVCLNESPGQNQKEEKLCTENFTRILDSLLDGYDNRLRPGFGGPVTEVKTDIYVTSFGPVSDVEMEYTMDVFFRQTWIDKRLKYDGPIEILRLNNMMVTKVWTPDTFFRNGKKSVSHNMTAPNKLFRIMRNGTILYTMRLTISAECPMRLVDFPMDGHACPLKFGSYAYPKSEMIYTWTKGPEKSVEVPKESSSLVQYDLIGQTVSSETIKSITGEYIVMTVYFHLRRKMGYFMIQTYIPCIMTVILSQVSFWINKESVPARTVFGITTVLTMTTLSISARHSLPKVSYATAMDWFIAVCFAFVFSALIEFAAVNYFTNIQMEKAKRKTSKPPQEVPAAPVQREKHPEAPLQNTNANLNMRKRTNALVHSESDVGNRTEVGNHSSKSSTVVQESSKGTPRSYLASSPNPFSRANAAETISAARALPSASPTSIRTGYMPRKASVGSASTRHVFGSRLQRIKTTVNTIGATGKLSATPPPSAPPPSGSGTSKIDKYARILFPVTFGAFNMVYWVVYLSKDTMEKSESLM

CC(C)CCC[C@@H](C)[C@H]1CC[C@H]2[C@@H]3C(=O)C=C4C=CCC[C@]4(C)[C@H]3CC[C@]12C
Activity (Neuron [1]): Active | Activity (Neuron [2]): Active | IC50 [3]: 1 µM | Activity (Mus musculus [4]): Active | IC50 [5]: 19.4 µM | Activity (Neuron [6]): Active | Activity [7]: 39% | Activity [8]: 4% | Activity [9]: 7% | Activity (Mus musculus [10]): Active | Activity (Mus musculus [11]): inactive | Activity (Neuron [12]): Active
